This is an account of results in ChEMBL document CHEMBL5291721, “A preclinical secondary pharmacology resource illuminates target-adverse drug reaction associations of marketed drugs” (Nat Commun, 2023).

Targets include Cannabinoid receptor 1 (Homo sapiens, UniProt P21554); Melanocortin receptor 4 (Homo sapiens, UniProt P32245); Mu-type opioid receptor (Homo sapiens, UniProt P35372).
In assay [1] the target is T1, Alpha-1A adrenergic receptor (Homo sapiens, UniProt P35348).
T1 sequence (P35348 whole entry): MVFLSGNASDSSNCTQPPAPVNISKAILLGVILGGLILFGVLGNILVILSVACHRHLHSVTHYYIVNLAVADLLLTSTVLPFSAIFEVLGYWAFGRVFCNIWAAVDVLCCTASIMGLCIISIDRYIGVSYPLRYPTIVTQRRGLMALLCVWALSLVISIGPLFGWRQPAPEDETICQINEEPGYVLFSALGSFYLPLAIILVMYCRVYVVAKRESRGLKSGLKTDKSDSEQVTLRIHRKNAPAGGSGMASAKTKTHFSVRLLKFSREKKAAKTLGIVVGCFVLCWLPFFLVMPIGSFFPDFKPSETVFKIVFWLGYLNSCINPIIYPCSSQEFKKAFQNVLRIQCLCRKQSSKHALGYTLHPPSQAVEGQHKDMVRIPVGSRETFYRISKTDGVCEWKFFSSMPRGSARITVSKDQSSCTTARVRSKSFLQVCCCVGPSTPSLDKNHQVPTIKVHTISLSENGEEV

Assay [2] deals with T2, Alpha-2A adrenergic receptor (Homo sapiens, UniProt P08913).
T2 sequence (P08913 whole entry): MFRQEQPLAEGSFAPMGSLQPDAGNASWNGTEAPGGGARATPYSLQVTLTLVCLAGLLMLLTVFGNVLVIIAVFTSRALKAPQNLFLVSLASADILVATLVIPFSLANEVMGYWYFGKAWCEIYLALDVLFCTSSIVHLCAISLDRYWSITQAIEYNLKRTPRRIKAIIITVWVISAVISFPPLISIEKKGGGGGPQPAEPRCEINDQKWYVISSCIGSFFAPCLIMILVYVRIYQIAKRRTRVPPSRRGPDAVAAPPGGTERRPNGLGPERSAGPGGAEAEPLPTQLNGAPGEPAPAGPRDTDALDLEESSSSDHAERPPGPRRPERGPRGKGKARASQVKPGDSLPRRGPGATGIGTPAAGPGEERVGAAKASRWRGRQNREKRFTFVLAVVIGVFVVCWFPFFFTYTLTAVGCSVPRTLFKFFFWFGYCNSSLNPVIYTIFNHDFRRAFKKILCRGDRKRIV
The class given is functional, cell-based.

The next assay concerns the target T3, B2 bradykinin receptor (Homo sapiens, UniProt P30411).
T3 sequence (P30411 whole entry): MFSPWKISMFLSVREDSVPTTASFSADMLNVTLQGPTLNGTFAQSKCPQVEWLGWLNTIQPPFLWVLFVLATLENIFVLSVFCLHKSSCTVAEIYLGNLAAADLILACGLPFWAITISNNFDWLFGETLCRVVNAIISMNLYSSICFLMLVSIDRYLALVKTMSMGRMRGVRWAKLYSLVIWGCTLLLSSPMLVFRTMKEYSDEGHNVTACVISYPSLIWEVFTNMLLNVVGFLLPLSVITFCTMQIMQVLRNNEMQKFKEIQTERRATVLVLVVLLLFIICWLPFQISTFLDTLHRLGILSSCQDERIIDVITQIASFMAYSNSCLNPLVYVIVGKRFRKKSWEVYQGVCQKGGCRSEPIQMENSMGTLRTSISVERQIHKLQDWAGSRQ

For assay [3], the target named is 5-hydroxytryptamine receptor 2B (Homo sapiens, UniProt P41595). The assay is classed as functional, cell-based.
Assay [4] deals with Kappa-type opioid receptor (Homo sapiens, UniProt P41145).
Another assay concerns the target T4, Thromboxane A2 receptor (Homo sapiens, UniProt P21731).
T4 sequence (P21731 whole entry): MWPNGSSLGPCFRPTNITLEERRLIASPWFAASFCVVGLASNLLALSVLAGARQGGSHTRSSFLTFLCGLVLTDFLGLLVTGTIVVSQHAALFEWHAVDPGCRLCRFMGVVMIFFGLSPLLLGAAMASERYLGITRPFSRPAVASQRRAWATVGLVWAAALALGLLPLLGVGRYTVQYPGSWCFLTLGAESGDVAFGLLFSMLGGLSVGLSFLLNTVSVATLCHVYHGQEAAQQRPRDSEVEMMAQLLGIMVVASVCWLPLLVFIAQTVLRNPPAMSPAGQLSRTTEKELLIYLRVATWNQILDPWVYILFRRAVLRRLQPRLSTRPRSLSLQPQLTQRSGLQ

Assay [5] has as its target T1, Alpha-1A adrenergic receptor. The class given is functional, cell-based.
Also: assay procedure not described here.

Chain of 5-hydroxytryptamine receptor 2B (P41595 whole entry): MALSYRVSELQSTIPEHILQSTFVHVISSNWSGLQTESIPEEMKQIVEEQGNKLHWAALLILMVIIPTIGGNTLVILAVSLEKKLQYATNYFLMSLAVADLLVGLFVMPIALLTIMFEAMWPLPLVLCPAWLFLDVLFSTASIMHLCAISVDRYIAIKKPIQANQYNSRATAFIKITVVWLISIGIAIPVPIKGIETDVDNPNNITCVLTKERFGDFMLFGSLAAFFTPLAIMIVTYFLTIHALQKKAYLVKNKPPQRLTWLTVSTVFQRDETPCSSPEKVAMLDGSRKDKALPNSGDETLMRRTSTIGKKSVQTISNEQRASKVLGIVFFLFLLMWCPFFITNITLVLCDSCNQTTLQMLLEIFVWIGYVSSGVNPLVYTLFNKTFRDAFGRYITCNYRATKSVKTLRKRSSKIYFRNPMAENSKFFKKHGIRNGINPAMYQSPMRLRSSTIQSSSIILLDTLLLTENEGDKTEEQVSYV
Chain of Kappa-type opioid receptor (P41145 whole entry): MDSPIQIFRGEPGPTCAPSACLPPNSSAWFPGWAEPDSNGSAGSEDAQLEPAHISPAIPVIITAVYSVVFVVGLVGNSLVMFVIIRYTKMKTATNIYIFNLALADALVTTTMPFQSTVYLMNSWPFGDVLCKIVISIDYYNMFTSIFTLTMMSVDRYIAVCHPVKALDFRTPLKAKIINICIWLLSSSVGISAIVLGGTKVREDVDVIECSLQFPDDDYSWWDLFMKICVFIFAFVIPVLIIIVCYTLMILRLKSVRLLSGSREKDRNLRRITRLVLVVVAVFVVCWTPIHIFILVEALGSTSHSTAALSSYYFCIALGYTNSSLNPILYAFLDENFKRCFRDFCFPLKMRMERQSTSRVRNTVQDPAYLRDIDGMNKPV
Chain of Cannabinoid receptor 1 (P21554 whole entry): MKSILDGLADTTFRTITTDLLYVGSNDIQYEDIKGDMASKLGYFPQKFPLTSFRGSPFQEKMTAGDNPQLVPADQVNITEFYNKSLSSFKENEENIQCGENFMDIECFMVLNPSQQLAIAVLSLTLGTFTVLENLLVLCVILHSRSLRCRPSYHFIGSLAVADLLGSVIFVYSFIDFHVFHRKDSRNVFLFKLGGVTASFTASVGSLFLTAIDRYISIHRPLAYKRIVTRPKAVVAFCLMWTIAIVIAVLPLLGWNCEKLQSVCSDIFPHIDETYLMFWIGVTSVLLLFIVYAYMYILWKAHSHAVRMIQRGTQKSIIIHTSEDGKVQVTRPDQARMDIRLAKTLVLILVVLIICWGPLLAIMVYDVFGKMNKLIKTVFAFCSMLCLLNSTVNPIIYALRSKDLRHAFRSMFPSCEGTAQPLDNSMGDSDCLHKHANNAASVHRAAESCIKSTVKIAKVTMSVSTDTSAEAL
Chain of Melanocortin receptor 4 (P32245 whole entry): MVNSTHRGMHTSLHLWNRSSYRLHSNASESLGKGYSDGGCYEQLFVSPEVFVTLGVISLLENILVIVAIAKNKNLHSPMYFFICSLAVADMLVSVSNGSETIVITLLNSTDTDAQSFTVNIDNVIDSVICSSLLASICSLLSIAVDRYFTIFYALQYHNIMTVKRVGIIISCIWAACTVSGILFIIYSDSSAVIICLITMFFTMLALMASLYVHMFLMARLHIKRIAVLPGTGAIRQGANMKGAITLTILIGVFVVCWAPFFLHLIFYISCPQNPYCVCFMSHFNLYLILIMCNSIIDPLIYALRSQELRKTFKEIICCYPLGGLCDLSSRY
Chain of Mu-type opioid receptor (P35372 whole entry): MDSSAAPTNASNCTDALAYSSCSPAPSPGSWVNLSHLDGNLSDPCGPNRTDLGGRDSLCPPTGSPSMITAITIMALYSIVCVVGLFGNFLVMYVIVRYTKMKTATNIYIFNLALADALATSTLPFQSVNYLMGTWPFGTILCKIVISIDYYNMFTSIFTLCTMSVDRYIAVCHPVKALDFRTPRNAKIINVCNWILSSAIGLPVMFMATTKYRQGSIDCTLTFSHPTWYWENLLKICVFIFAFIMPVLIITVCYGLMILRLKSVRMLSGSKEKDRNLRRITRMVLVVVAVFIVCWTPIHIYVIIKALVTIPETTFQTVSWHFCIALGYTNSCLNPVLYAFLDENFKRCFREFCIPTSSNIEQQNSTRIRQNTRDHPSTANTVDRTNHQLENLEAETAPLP

With `COc1ccccc1N1CCN(CCCNc2cc(=O)n(C)c(=O)n2C)CC1`, the AC50 was 4.3 nM in assay [1]; above 30 µM in [2]; above 30 µM on B2 bradykinin receptor; above 30 µM in assay [3]; above 30 µM in [4]; above 30 µM at Thromboxane A2 receptor. Half-maximal activity in [5] (AC50) was put at 0.57 µM.

Consider `COC(=O)C1=C(C)NC(C)=C(C(=O)OC2CCCN(Cc3ccccc3)C2)C1c1cccc([N+](=O)[O-])c1` (centres undefined) [BENIDIPINE], for which the AC50 in [1] is 3000 nM; in [2], above 30 µM; at B2 bradykinin receptor, above 30 µM; in assay [3], above 30 µM; in assay [4] it was 1.5 µM; on Thromboxane A2 receptor, above 30 µM.

For the molecule `Cc1cc(O)c(C(=O)N[C@@H](C(=O)N[C@@H]2C(=O)N3C(C(=O)O)=C(CSc4nnnn4C)CS[C@H]23)c2ccc(O)cc2)cn1` [CEFPIRAMIDE], the AC50 in assay [1] was above 30000 nM; in assay [2], above 30 µM; on B2 bradykinin receptor it was above 30 µM; at Cannabinoid receptor 1 it was above 30 µM; in assay [3], above 30 µM; at Melanocortin receptor 4, above 30 µM. Also, the AC50 (in assay [4]; at Thromboxane A2 receptor) was above 30 µM each time.

As for `Nc1nc(/C(=C/CC(=O)O)C(=O)N[C@@H]2C(=O)N3C(C(=O)O)=CCS[C@H]23)cs1` [CEFTIBUTEN], the AC50 (in [2]; on B2 bradykinin receptor; on Cannabinoid receptor 1; in [3]; on Melanocortin receptor 4; in [4]) was above 30 µM in each case. In addition, the AC50 (at Thromboxane A2 receptor; in assay [5]) was above 30 µM in each case.

Turning to `CC(C(=O)O)c1ccc(N2Cc3ccccc3C2=O)cc1` (centres undefined) [INDOPROFEN], the AC50 in assay [1] was above 30000 nM; in assay [2], above 30 µM; on B2 bradykinin receptor, above 30 µM; at Cannabinoid receptor 1, above 30 µM; in assay [3], above 30 µM; in assay [4] it was above 30 µM. In addition, the AC50 (on Thromboxane A2 receptor; at Mu-type opioid receptor; in assay [5]) was above 30 µM each time.

In the case of `CC(Oc1c(Cl)cccc1Cl)C1=NCCN1` (centres undefined) [LOFEXIDINE], the AC50 in assay [1] is 803 nM; at B2 bradykinin receptor it was above 30 µM; on Cannabinoid receptor 1, above 30 µM; in assay [3], above 30 µM; in assay [4] it was 22 µM; on Thromboxane A2 receptor it was above 30 µM.

For the molecule `CC(C)=CCC/C(C)=C/C=C/C(C)=C/C=C/C(C)=C/C=C/C=C(C)/C=C/C=C(C)/C=C/C=C(\C)CCC=C(C)C` [LYCOPENE], the AC50 (in assay [2]; at B2 bradykinin receptor; on Cannabinoid receptor 1; in assay [3]; in assay [4]; at Thromboxane A2 receptor) was above 30 µM throughout. Moreover, the AC50 in [5] is above 30 µM.

Take `CC(CC(c1ccccc1)c1ccccc1)NC(C)(C)C` (centres undefined) [TERODILINE]: the AC50 in assay [2] was above 30 µM; at B2 bradykinin receptor it was above 30 µM; in assay [3], above 30 µM; in [4], 8.4 µM; at Thromboxane A2 receptor, above 30 µM; in assay [5], 12 µM.

As to `CC(=O)O[C@H]1C[C@@H]2CC[C@@H]3[C@H](CC[C@@]4(C)[C@H]3C[C@H]([N+]3(C)CCCCC3)[C@@H]4OC(C)=O)[C@@]2(C)C[C@@H]1N1CCCCC1` [VECURONIUM], the AC50 (in assay [2]; on B2 bradykinin receptor; in assay [3]; in assay [4]; on Thromboxane A2 receptor; in assay [5]) was above 30 µM throughout.

`C=CCN1CCCC1CNC(=O)c1cc(S(N)(=O)=O)cc(OC)c1OC` (centres undefined) [VERALIPRIDE]: the AC50 (in [2]; on B2 bradykinin receptor; in assay [3]; in [4]; at Thromboxane A2 receptor; in assay [5]) was above 30 µM in each case.

One may read the AC50 as the concentration giving half of the maximal activity seen. High values mean weaker potency, low ones greater potency.
